The results in this text go back to ChEMBL document CHEMBL4811258, “Potent Antimalarials with Development Potential Identified by Structure-Guided Computational Optimization of a Pyrrole-Based Dihydroorotate Dehydrogenase Inhibitor Series” (J Med Chem, 2021).

Calls of active or inactive are those of the source. The rule behind the calls is not given here.

Series [1] can be described thus: Inhibition of dog DHODH up to 100 uM. Set-up: species or system Canis lupus familiaris.
Series [2] can be described thus: Mutagenicity in Salmonella typhimurium by Ames test. In kind it is toxicity. The note with it: salmonella enterica subsp. enterica serovar typhimurium. On the technique in general: In the Ames test, an excess of revertant colonies over the control signals mutagenicity.
A further series deals with L1210. The series can be described thus: Cytotoxicity against mouse L1210 cells. In kind it is cell-based.
The test system of a further series is HepG2. Kind of series: Cytotoxicity against human HepG2 cells. In kind it is cell-based.
In series [3] the target is Dihydroorotate dehydrogenase (quinone), mitochondrial (Mus musculus, UniProt O35435). Kind of series: Inhibition of mouse DHODH up to 100 uM.
Series [4] has as its target Dihydroorotate dehydrogenase (quinone), mitochondrial (Rattus norvegicus, UniProt Q63707). Kind of series: Inhibition of rat DHODH up to 100 uM.
For series [5], the target named is Dihydroorotate dehydrogenase (quinone), mitochondrial (Homo sapiens, UniProt Q02127). In kind it is ADME.
The test system of series [6] is Plasmodium falciparum. Kind of series: microbe, parasite or virus in culture. The note with it: 3D7, 72 h.
The nature of series [7]: Inhibition of Plasmodium vivax DHODH expressed in Escherichia coli BL21-DE3 using L-dihydroorotate as substrate by steady-state DCIP method.
Series [8] can be described thus: Inhibition of Plasmodium falciparum DHODH expressed in Escherichia coli BL21-DE3 using L-dihydroorotate as substrate by steady-state DCIP method.
Series [9] is described as follows: Oral bioavailability in mouse at 19 mg/kg. In kind it is ADME, organism-based. The note with it: in vivo.
Series [10] has as its system Plasmodium falciparum.
Series [11] can be described thus: Lipophilicity, logD of compound at pH 7.4. In kind it is physicochemical. The note with it: buffer.
Another series has as its target Cytochrome P450 3A4 (Homo sapiens, UniProt P08684).
Series [12] relates to Plasmodium falciparum. Kind of series: Antimalarial activity against Plasmodium falciparum 3D70087/N9 infected in orally dosed NOD-SCID IL2Rgamma null mouse assessed as parasitemia level in human red blood cells at 10 to 100 mg/kg, po administered days after 1 day post infection twice daily for 6 days measured on day 7 by flow cytometry. The class given is functional, organism-based. The settings on record: dose 10-100 mg/kg.

Chain of Dihydroorotate dehydrogenase (quinone), mitochondrial (Homo sapiens, UniProt Q02127) (Q02127 whole entry): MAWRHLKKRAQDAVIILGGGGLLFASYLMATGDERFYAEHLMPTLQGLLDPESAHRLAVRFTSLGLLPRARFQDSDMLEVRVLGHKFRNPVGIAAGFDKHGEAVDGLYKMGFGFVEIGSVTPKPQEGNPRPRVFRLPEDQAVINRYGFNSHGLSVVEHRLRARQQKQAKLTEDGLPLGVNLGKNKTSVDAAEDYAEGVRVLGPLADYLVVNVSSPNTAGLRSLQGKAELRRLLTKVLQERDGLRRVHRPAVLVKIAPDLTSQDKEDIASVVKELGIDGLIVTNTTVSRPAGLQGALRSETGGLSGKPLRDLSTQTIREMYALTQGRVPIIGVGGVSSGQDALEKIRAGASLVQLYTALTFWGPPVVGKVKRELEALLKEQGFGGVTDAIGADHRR
Chain of Dihydroorotate dehydrogenase (quinone), mitochondrial (Mus musculus, UniProt O35435) (O35435 whole entry): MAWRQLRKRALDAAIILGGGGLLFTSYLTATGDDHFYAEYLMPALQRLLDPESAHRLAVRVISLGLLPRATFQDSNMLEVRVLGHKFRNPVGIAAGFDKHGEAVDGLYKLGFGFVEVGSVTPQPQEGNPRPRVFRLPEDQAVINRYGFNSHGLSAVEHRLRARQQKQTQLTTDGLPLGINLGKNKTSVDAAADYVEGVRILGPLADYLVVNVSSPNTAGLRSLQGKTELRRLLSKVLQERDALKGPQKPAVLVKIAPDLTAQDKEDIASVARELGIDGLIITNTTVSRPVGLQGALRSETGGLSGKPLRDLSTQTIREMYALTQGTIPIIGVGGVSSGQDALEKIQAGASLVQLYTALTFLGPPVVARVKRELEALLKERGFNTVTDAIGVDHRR
Chain of Cytochrome P450 3A4 (P08684 whole entry): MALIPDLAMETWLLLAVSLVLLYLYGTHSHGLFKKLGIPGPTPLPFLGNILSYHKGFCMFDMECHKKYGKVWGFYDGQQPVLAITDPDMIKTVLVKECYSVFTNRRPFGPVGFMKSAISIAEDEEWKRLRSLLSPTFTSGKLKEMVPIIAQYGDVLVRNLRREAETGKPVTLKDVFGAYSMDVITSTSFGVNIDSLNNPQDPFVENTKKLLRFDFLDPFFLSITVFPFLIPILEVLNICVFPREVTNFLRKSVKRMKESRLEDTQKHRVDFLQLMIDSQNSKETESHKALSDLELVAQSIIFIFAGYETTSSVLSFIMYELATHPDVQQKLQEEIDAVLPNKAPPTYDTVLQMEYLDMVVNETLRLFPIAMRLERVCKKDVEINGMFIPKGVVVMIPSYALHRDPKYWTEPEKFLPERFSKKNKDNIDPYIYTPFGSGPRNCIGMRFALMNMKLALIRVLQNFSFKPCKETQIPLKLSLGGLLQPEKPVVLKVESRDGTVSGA
Chain of Dihydroorotate dehydrogenase (quinone), mitochondrial (Rattus norvegicus, UniProt Q63707) (Q63707 whole entry): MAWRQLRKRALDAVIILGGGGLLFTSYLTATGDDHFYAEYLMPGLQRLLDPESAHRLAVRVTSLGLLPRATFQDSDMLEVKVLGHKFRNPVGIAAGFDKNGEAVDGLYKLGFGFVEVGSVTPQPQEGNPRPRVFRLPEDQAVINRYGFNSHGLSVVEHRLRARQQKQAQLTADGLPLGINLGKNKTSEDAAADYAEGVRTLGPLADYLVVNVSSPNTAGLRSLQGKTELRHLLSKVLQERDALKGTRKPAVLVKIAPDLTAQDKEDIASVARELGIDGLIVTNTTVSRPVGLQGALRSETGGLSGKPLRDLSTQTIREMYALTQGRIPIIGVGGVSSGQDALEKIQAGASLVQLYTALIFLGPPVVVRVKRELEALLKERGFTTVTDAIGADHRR

Consider `Cc1c(C2(c3ccc(C(F)(F)F)c(C#N)c3)CC2)c[nH]c1C(=O)NC(C)c1nc[nH]n1` (stereo in doubt; form 1) [listing 1 of 2 here], for which the “inhibition (INH)” value in [1], in series [3] and in series [4] was “Not Active” throughout. Also, the Activity entry (in series [2]; with L1210; in the series with HepG2) was “Non-Toxic” throughout.

The term IC50 denotes the concentration needed to halve the response being measured. Low values mean greater potency in that assay, high ones weaker potency in that assay. Usually EC50 stands for the concentration that produces a half-maximal response. A low value points to a more potent agent. With `Cc1c(C2(c3ccc(C(F)(F)F)nc3)CC2)c[nH]c1C(=O)NC1CC1`, the values for the IC50 in series [5], in series [7] and in [8] were more than 100 µM, 0.011 µM and 0.019 µM, respectively. This molecule also had an EC50 in the series with Plasmodium falciparum [6] of more than 10 µM.

In the case of `CCOC(=O)c1[nH]cc(Cc2ccc(C(F)(F)F)c3ncoc23)c1C`, the IC50 is more than 100 µM in [5], 0.016 µM in series [7] and 0.047 µM in series [8]. In the series with Plasmodium falciparum [6], this molecule came in with an EC50 of 0.024 µM.

In the case of `Cc1cc(C(C)NC(=O)c2[nH]cc(C(O)c3ccc(C(F)(F)F)nc3)c2C)no1` (racemic), the IC50 was more than 100 µM in series [5], 0.13 µM in [7] and 0.18 µM in [8]. In addition, a half-maximal response in the series with Plasmodium falciparum [6] (EC50) required 0.022 µM.

In [9], `Cc1c(C2(c3ccc(C(F)(F)F)nc3)CC2)c[nH]c1C(=O)NC(C)c1cc(C(N)=O)[nH]n1` (stereo in doubt; form 1) registered an F of 18%. Also, the IC50 was 0.17 µM in series [7] and 0.14 µM in series [8]. In the series on Plasmodium falciparum [10], this molecule returned a half-maximal effective concentration (EC50) of 0.046 µM.

Consider `Cc1c(Cc2ccc(C(F)(F)F)nc2)c[nH]c1C(=O)NC(C)c1cc(Br)no1` (racemic), for which the IC50 was more than 100 µM in series [5], 0.02 µM in series [7] and 0.07 µM in [8]. This molecule showed an EC50 with Plasmodium falciparum [6] of 0.12 µM.

The logD is lipophilicity at a set pH, counting ionised and neutral species. A lower logD goes with a more hydrophilic compound. For `Cc1c(Cc2cccc3ccncc23)c[nH]c1C(=O)N1CC(F)(F)C1`, the IC50 was more than 100 µM in series [5], 0.0077 µM in series [7] and 0.016 µM in series [8]. The same molecule yielded an EC50 with Plasmodium falciparum [6] of 0.0038 µM. The molecule also gave a logD in [11] of less than 3.4.

`Cc1c(Cc2ccc(F)c3ccncc23)c[nH]c1C(=O)N1CC(F)(F)C1`: the figures for the IC50 in series [5], in series [7] and in series [8] were more than 100 µM, 0.0065 µM and 0.011 µM, respectively. The same molecule showed an EC50 in the series on Plasmodium falciparum [6] of 0.0034 µM. This molecule yielded a logD in series [11] of less than 3.4.

As to `Cc1c(C2(c3ccc(C(F)(F)F)nc3)CC2)c[nH]c1C(=O)N1CC(F)(F)C1`, the figures for the IC50 in [5], in series [7] and in [8] were more than 100 µM, 0.017 µM and 0.021 µM, respectively. In the series on Plasmodium falciparum [6], this molecule came in with an EC50 of 0.002 µM.

For `Cc1c(Cc2ccc(F)c3ccncc23)c[nH]c1C(=O)NC1CC1`, the IC50 in series [5] is more than 100 µM; in series [7], 0.004 µM; in series [8] it was 0.0061 µM. Further, a half-maximal effect in the series on Plasmodium falciparum [6] (EC50) was put at 0.00092 µM. Moreover, in series [11], the logD was less than 3.4.

Regarding `COc1ccc(Cc2c[nH]c(C(=O)NC3CC3)c2C)c2cnccc12`, the values for the IC50 in series [5], in series [7] and in series [8] were more than 50 µM, 0.021 µM and 0.023 µM, respectively. For the same molecule, in the series on Plasmodium falciparum [6], the EC50 is 0.0017 µM. Further, in series [11], the logD was less than 3.4.

In the case of `Cc1nc(C(C)NC(=O)c2[nH]cc(Cc3ccc(C(F)(F)F)nc3)c2C)n[nH]1` (racemic), the IC50 in series [5] was more than 100 µM; in series [7], 0.32 µM; in series [8], 0.68 µM. The molecule also yielded an EC50 in the series with Plasmodium falciparum [6] of 0.38 µM.

For the molecule `Cc1cc(C(C)NC(=O)c2[nH]cc(C(C#N)c3ccc(C(F)(F)F)nc3)c2C)no1` (racemic), the values for the IC50 in series [5], in series [7] and in series [8] were more than 100 µM, 0.41 µM and 0.27 µM, respectively. In the series on Plasmodium falciparum [6], this molecule returned an EC50 of 0.021 µM.

On to `CCOC(=O)c1[nH]cc(Cc2cccc3ncoc23)c1C`, for which the IC50 in series [5] is more than 100 µM; in series [7], 0.013 µM; in series [8], 0.1 µM. In the series on Plasmodium falciparum [6], this molecule registered an EC50 of 0.22 µM.

As for `Cc1c(C(=O)NC2CC2)[nH]c(Cl)c1Cc1ccc(C(F)(F)F)nc1`, the results for the IC50 in series [5], in series [7] and in [8] were more than 100 µM, 0.017 µM and 0.12 µM, respectively. This molecule returned an EC50 in the series with Plasmodium falciparum [6] of 0.032 µM.

Regarding `COC(c1ccc(C(F)(F)F)nc1)c1c[nH]c(C(=O)NC(C)c2cc(C)on2)c1C` (racemic), the IC50 was more than 100 µM in series [5], 0.1 µM in series [7] and 0.15 µM in series [8]. For the same molecule, in the series on Plasmodium falciparum [6], a half-maximal response (EC50) required 0.04 µM.

For `Cc1c(C2(c3ccc(C(F)(F)F)nc3)CC2)c[nH]c1C(=O)NC(C)c1c[nH]cn1` (stereo in doubt; form 1), the TDI entry at Cytochrome P450 3A4 is recorded as “Active”. This molecule also displayed an EC50 with Plasmodium falciparum [6] of 43 µM.

Regarding `Cc1c(Cc2ccc(C(F)(F)F)nc2F)c[nH]c1C(=O)N1CC(F)(F)C1`, the IC50 in series [5] is more than 100 µM; in [7], 0.012 µM; in series [8], 0.016 µM. The molecule further came in with an EC50 with Plasmodium falciparum [6] of 0.0026 µM.

For the molecule `Cc1c(Cc2cccc3ccncc23)c[nH]c1C(=O)NCC(F)(F)F`, the IC50 was more than 100 µM in series [5], 0.017 µM in [7] and 0.035 µM in series [8]. Moreover, the EC50 with Plasmodium falciparum [6] amounted to 0.0096 µM. Besides, the logD in series [11] is less than 3.4.

On to `Cc1c(Cc2cccc3ccncc23)c[nH]c1C(=O)NC1CC1`, for which the figures for the half-maximal inhibitory concentration (IC50) in series [5], in series [7] and in series [8] were more than 100 µM, 0.016 µM and 0.011 µM, respectively. In the series with Plasmodium falciparum [6], this molecule displayed an EC50 of 0.0022 µM. In addition, the logD in [11] is less than 3.4.

Take `Cc1nc(C(C)NC(=O)c2[nH]cc(Cc3ccc(C(F)(F)F)nc3)c2C)c[nH]1` (racemic): the IC50 is more than 100 µM in series [5], 0.5 µM in series [7] and 13 µM in series [8]. Also, the EC50 in the series with Plasmodium falciparum [6] was found to be 0.38 µM.

Consider `Cc1c(C2(c3ccc(C(F)(F)F)c(C#N)c3)CC2)c[nH]c1C(=O)NC(C)c1nc[nH]n1` (stereo in doubt; form 1) [listing 2 of 2 here], for which, in the series on Plasmodium falciparum [12], the outcome was Active.

Regarding `Cc1cc(C(C)NC(=O)c2[nH]cc(Cc3cccc4ccncc34)c2C)no1` (racemic), the IC50 was more than 100 µM in series [5], 0.021 µM in series [7] and 0.03 µM in series [8]. In the series on Plasmodium falciparum [6], this molecule yielded an EC50 of 0.0037 µM.

Regarding `Cc1cc(C(C)NC(=O)c2[nH]cc(C(C)c3ccc(C(F)(F)F)nc3)c2C)no1` (racemic), the IC50 in [5] is more than 100 µM; in [7], 0.074 µM; in series [8], 0.079 µM. Moreover, the EC50 in the series with Plasmodium falciparum [6] came to 0.003 µM.

As to `Cc1c(Cc2ccc(C(F)(F)F)nc2F)c[nH]c1C(=O)NCC(F)(F)F`, the values for the IC50 in series [5], in series [7] and in [8] were more than 100 µM, 0.053 µM and 0.079 µM, respectively. In the series with Plasmodium falciparum [6], this molecule had an EC50 of 0.02 µM.

For the molecule `Cc1c(-c2c[nH]c3nc(C(F)(F)F)ccc23)c[nH]c1C(=O)NC1CC1`, the IC50 is more than 100 µM in series [5], 0.01 µM in series [7] and 0.12 µM in series [8]. In the series on Plasmodium falciparum [6], this molecule yielded an EC50 of 0.013 µM.

Consider `Cc1c(Cc2ccc(C(F)(F)F)nc2F)c[nH]c1C(=O)NC(C)c1nc[nH]n1` (racemic), for which the IC50 in series [5] is more than 100 µM; in series [7], 0.73 µM; in series [8] it was 0.99 µM. In the series on Plasmodium falciparum [6], the response was half-maximal at 0.58 µM (EC50).
